Experiment [1] relates to MK-801-disrupted paired-pulse facilitation. Nature of the experiment: Paired-pulse facilitation (PPF), CA1/subiculum to mPFC, urethane-anesthetized rat. The class given is in vivo. As to the method: Experiments were performed on n=10 adult male Sprague-Dawley rats (275–305 g) under urethane anesthesia (1.5 g/kg, i.p.). The femoral vein was cannulated for i.v. administration of drugs. A stimulation electrode was placed in the CA1/subiculum region (coordinates: A-P = +6.3 mm, M–L = +5.2 mm, D-V = +8.0 mm) using stereotactic methods and unilateral local field potential (LFP) was recorded by a metal monopolar macroelectrode placed into the medial PFC (mPFC; coordinates: A-P = +3.0 mm, M-L = +0.6 mm, D-V = +5.0 mm). […] Evoked responses to the first and the second stimuli were identified (P1 and P2, respectively) and the amount of PPF determined by the formula: (P2 amplitude/P1 amplitude). Waveform averages used to calculate PPF consisted of 60 consecutive stimuli. Five minutes were allowed between administration of each drug dose and the starting of the subsequent average of each 10-min period after each cumulative dose (0.1–1 mg/kg, IV). Disruption in power of LFP delta activity was measured as the percentage of power in low frequency (0–1.8 Hz) irregular activity in the total (0–4 Hz) delta power range. LFP power spectra were determined during periods concurrent with waveform averages and PPF calculation. Statistical significance was determined by means of two-tailed paired Student’s t-test.

Experiment [2] has as its system acetylcholine levels in the PFC of WT and D1 KO mice. Nature of the experiment: Prefrontal cortex acetylcholine levels via microdialysis, WT and D1 KO mouse. The experiment is classed as in vivo. The settings on record: 10 mg/kg SC. The source says:
Adult male Sprague-Dawley rats (280–360 g) were obtained from Charles-River Laboratories, Raleigh, NC and male C57BL/6J DRD1a WT and D1 DA receptor knockout mice (DRD1a-905781) were obtained from The Jackson Laboratories (Bar Harbor, ME). Animals were housed on a 12-h light/dark cycle with free access to food and water and allowed to acclimate for at least 5 d after arrival. Aseptic technique was used during the surgical procedure in order to prevent infection. On the day of the procedure animals were anesthetized with isoflurane (4%) and their heads shaved. The animals were then placed into a Kopf stereotaxic frame, the surgical area disinfected by swabbing with Provodine solution, and the area isolated with a sterile surgical drape. Anesthesia was maintained with isoflurane (2.5%–3%) delivered through a nose cone using a Univentor 400 anesthesia unit. Animals were given a 0.1 ml subcutaneous (s.c.) injection of Metacam (NSAID, meloxicam, 5 mg/ml, Boehringer Ingelheim) as a post-operative analgesic. Marcaine (bupivacaine, 0.5%, Hospira, Lake Forest, IL), a long acting local anesthetic, was administered s.c. at the surgical area to minimize pain and discomfort.
A 1.5–2 cm incision was made along the midline of the skull, beginning from a point just behind the eyes and running posterior. The skin was retracted with hemostats and the skull was further exposed using blunt dissection with cotton swabs. Bleeding capillaries were cauterized, and the skull dried with a sterile gauze sponge.
A microdialysis guide cannula [Bioanalytical Systems Inc (BAS), West Lafayette, IN, part # MD-2251] was placed into a guide holder on the stereotaxic frame and positioned over “Bregma”. The guide cannula was positioned over the PFC (A-P, +3.2 mm; M-L, +0.7 mm, left, relative to bregma) and the location marked on the skull. Using a 0.7 mm burr, a hole was made in the skull at the cannula position. […]
For conventional analysis, ACh was analyzed by high performance liquid chromatography (HPLC) utilizing a modification of the BAS ACh-choline assay kit (BAS part # MF-8910). […]

Structures are written as SMILES.

With `Cc1cc(Oc2nccc3occc23)ccc1-c1c(C)ncc2nccn12` [PF-6142], in experiment [1] (PF-6142 1.0 mg/kg IV cumulative (p=0.006)), the “PPF values vs MK-801 challenge” value was “significantly higher PPF values”. Moreover, the “effect on MK-801-induced changes in PPF after SCH-23390 pretreatment” value in experiment [1] (PF-6142 1.0-3.0 mg/kg IV cumulative (3 mg/kg: p=0.89)) is given as “no significant effect”. In experiment [1] (cumulative IV, Spearman-Karber, 95% confidence levels 0.21-0.57 mg/kg, n=5), the “ED50 for reversal of MK-801-induced effects on PPF” value was determined as 0.35 mg/kg. Besides, the results for the “PFC ACh levels vs vehicle (AUC 75-180 min)” value in experiment [2] (D1 KO mice) and in experiment [2] (WT mice) were “not in the KO group” and “increased ACh levels”, respectively.

(Values after article PMC7358525, “Characterization of PF-6142, a Novel, Non-Catecholamine Dopamine Receptor D1 Agonist, in Murine and Nonhuman Primate Models of Dopaminergic Activation” (Frontiers in Pharmacology, 2020).)
